According to patent US11834698B2, “Process for determining enzyme activity in a cell by activity-based reporter gene technology (ABRGT)” (INDIAN INSTITUTE OF SCIENCE EDUCATION AND RESEARCH, priority 2018, dated 2023):
Peptide text beside a SMILES is read from it. * marks the point of attachment. Cbz = O=C(OCc1ccccc1)*; CH2F = FC*

Target: T1, caspase-7 GFPspark (Homo sapiens, UniProt P55210)
T1 construct: host or cells: MCF-7, HEK-293
T1 sequence (P55210 24-198 limits assumed): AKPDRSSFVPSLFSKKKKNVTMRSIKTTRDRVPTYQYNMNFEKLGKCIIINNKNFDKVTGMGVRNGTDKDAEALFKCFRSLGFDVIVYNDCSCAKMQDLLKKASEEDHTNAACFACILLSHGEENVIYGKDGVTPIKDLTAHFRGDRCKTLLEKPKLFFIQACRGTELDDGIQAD
T1 sequence (P55210 207-303 limits assumed): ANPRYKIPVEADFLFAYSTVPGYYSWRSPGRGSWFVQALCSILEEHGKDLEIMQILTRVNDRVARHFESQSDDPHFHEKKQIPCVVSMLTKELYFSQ
Experiment: AbRGT FRET imaging / acceptor photobleaching, caspase-7 GFPspark in MCF-7 cells
Format: cell-based
Details: for effect of inhibitor on FRET signal / signal in Rh channel in presence of inhibitor: MCF-7, inhibitor 50 μM pre-treatment, STS 6 h, probe 1
Method: FIGS. 13A and 13B depict specific detection of caspase-7 GFPspark in MCF-7 cells. […] Cells were fixed and the fluorescence signal was collected in GFP, FRET and Rh channel. […] Bar graph representing the rise in GFP intensity in ROI after rhodamine photobleaching was 89 a.u. as compared to the unbleached background, i.e., 9 a.u. FRET efficiency was calculated to be 32±2%.
FIG. 15 depicts confocal images of MCF-7 cells in GFP, FRET and Rh channel Caspase-7 GFPspark transfected MCF-7 cells were treated with STS (1 μM) for 6 h and labelled (a) (i) with probe 1 (1 μM) probe. Cells were pre-treated with (a) (ii) Z-VAD-FMK (50 μM) or (a) (iii) Q-VD-OPh (50 μM) pan-caspase inhibitors 1 h before the probe labelling. Caspase-9 GFPspark transfected MCF-7 cells were treated with STS (1 μM) for 4 h and labelled (b) (i) with probe 1 (1 μM) probe. Cells were pre-treated with (b) (ii) Z-VAD-FMK (50 μM) 1 h before probe labelling. Caspase-8 GFPspark overexpressing HEK-293 cells were treated with TRAIL (1 μg/ml) for 5 h and labelled (c) (i) with the probe 1. Cells were pre-treated with (c) (ii) Z-VAD-FMK (50 μM) 1 h before probe labelling.
Plasmids and transient transfection: GFPspark tagged plasmids; caspase-3 GFPspark tag (Cat: HG10050-ACG), caspase-7 GFPspark tag (HG10049-ACG), caspase-8 GFPspark (HG10078-ACG), caspase-9 GFPspark (HG11151-ACG) and cathepsin B GFPspark (HG10483-ACG) were procured from Sino Biological. For transfection, cells were seeded in a 6-well plate at a density of 0.4 million cells/well. At 60-70% confluency, cells were transiently transfected for 24 h at 37° C. with 1 μg of the GFPspark tagged plasmid DNA construct mixed with 5 μL of Lipofectamine 2000 (Invitrogen) according to the manufacturer's instructions. 24 h post-transfection, cells were visualized under the GFP filter for GFPspark expression under fluorescence microscope at 10× magnification.
Labelling of active caspases in apoptotic cells with FABP: After 24 h of transfection, cells were treated with STS (1 μM) drug or TRAIL (1 μg/ml) for apoptotic induction and incubated for 2, 4, 6 and 8 h at 37° C. in a humidified atmosphere of 5% CO2/95% air. Cells were gently scraped off from the surface at the end of apoptotic induction and centrifuged at 3000 rpm for 5 min. The cell pellet was resuspended in 300 μL of fresh DMEM containing 1 μM of probe for probe 2 and incubated for additional 2 h at 37° C. in a humidified atmosphere of 5% CO2. Cells were again centrifuged at 3000 rpm for 5 mins, and the supernatant was decanted. Cells were washed with 1×PBS, thrice finally resuspended in 20 μL of 1×PBS. The cell suspension was put on a slide, and a coverslip was placed over it. It was left for air drying. Slides were then imaged for GFP, FRET and rhodamine fluorescence signals under confocal microscopy.
Inhibitor assay: Cells were pre-treated with 50 μM of Z-VAD-FMK or Q-VD-OPh or E-64 inhibitor 1 h before probe 1 labelling and incubated for 1 h at 37° C. in a humidified atmosphere of 5% CO2. Cells were gently scraped off from the surface at the end of inhibitor treatment and centrifuged at 3000 rpm for 5 min Cells were then labelled with the probe 1 as described in the previous section.
Fluorescence imaging studies, FRET procedure: Images were collected on Zeiss LSM710 confocal microscope with 25 mW argon laser using Zen10 software. The laser was tuned to lines at 488 nm (excitation laser for GFPspark) and 561 nm (excitation laser for rhodamine) Cells were examined with a 40× 1.3 NA Zeiss oil immersion objective and 2.4× zoom. Images were collected in the three channels; GFP channel, argon laser tuned at 488 nm with 2% laser intensity and fluorescence emission was collected in emission range of 490-550 nm; rhodamine channel, argon laser tuned to 561 nm laser with 2% laser intensity and fluorescence emission was collected in range 550-650 nm and FRET channel with excitation laser of GFPSPARK channel and emission range of rhodamine channel. […]

| effect of inhibitor on FRET signal | signal in Rh channel in presence of inhibitor | Molecule | rise in GFP intensity in ROI after rhodamine photobleaching (MCF-7, STS 1 μM 5 h, probe 1 μM) | calculated FRET efficiency (MCF-7, STS 1 μM 5 h or 6 h, probe 1 μM) |
| --- | --- | --- | --- | --- |
| abolished | significant punctate labelling | CC(C)[C@H](NC(=O)c1ccc2ccccc2n1)C(=O)N[C@@H](CC(=O)O)C(=O)COc1c(F)cccc1F [Q-VD-OPh] |  |  |
| completely abolished | completely abolished | COC(=O)C[C@H](NC(=O)[C@H](C)NC(=O)[C@@H](NC(=O)OCc1ccccc1)C(C)C)C(=O)CF [Z-VAD-FMK] (Cbz-Val-Ala-Asp(OMe)-CH2F) |  |  |
|  |  | Rhodamine-VAD-fluoromethyl ketone [probe 1] | 89 a.u. | 32±2% |
